Columns and labels:
[1] = 298.15 K, 101.33 kPa, Liquid; for speed of sound: Sing-around technique in a fixed-path interferometer; for mass density: Vibrating tube method
[2] = mn = molality of the nth substance listed, in mol/kg; conditions: 298.15 K, 101 kPa, Liquid; for speed of sound: Sing-around technique in a fixed-path interferometer; for mass density: Vibrating tube method

CCCCOC(=O)C(C)O (configuration not stated) [butyl 2-hydroxypropanoate]
[1]
Conditions	mass density [kg/m3]	speed of sound [m/s]
–	977.283	1285

OCC1CCCO1 (configuration not stated) [2-tetrahydrofurylmethanol]
[1]
Conditions	mass density [kg/m3]	speed of sound [m/s]
–	1050.75	1485.2

COC(=O)C(C)O (configuration not stated) [methyl 2-hydroxypropanoate]
[1]
Conditions	mass density [kg/m3]	speed of sound [m/s]
–	1087.43	1338.8

CCOC(=O)CCC(C)=O [ethyl levulinate]
[1]
Conditions	mass density [kg/m3]	speed of sound [m/s]
–	1007.54	1351.2

O=Cc1ccco1 [2-furaldehyde]
[1]
Conditions	mass density [kg/m3]	speed of sound [m/s]
–	1154.81	1440.2

COC(=O)CCC(C)=O [methyl levulinate]
[1]
Conditions	mass density [kg/m3]	speed of sound [m/s]
–	1045.4	1386.2

Cc1ccc(C=O)o1 [5-methylfurfural]
[1]
Conditions	mass density [kg/m3]	speed of sound [m/s]
–	1103.2	1447

C=CC(=O)OC [methyl propenoate]
[1]
Conditions	mass density [kg/m3]	speed of sound [m/s]
–	949.174	1169

OCc1ccco1 [2-hydroxymethylfuran]
[1]
Conditions	mass density [kg/m3]	speed of sound [m/s]
–	1130.27	1449.8

Cc1ccc(C=O)o1 [5-methylfurfural] + O
[2]
Conditions	mass density [kg/m3]	speed of sound [m/s]
m1 = 0.0067	997.297	1497
m1 = 0.0069	997.3	1497
m1 = 0.0081	997.319	1497.1
m1 = 0.0083	997.323	1497.2
m1 = 0.0084	997.325	1497.2
m1 = 0.0098	997.344	1497.2
m1 = 0.0103	997.35	1497.2
m1 = 0.0109	997.355	1497.3
m1 = 0.0122	997.373	1497.3
m1 = 0.0137	997.397	1497.4
m1 = 0.016	997.425	1497.6
m1 = 0.0179	997.454	1497.7
m1 = 0.0223	997.516	1497.9
m1 = 0.0257	997.563	1498.1
m1 = 0.0292	997.613	1498.3
m1 = 0.0462	997.848	1499.2
m1 = 0.0557	997.966	1499.6
m1 = 0.0608	998.055	1500
m1 = 0.0825	998.35	1501.1
m1 = 0.1136	998.767	1503
m1 = 0.1363	998.986	1503.8
m1 = 0.1454	999.221	1504.2
m1 = 0.1666	999.516	1505.2
m1 = 0.204	1000.01	1506.9
m1 = 0.2877	1001.14	1511

CCOC(=O)C(C)O (racemic) [DL-ethyl lactate]
[1]
Conditions	mass density [kg/m3]	speed of sound [m/s]
–	1028.37	1279.7

CCCCOC(=O)CCC(C)=O [butyl levulinate]
[1]
Conditions	mass density [kg/m3]	speed of sound [m/s]
–	969.935	1341.3

Source: the NIST ThermoML archive (doi:10.1016/j.jct.2013.06.020)
